# Measured values reported in ChEMBL document CHEMBL1201862, “PubChem BioAssay data set” (2004).
# Active and inactive are the calls of the source.
# Tests used:
# [1] = biological target: T1, Protein skinhead-1 (Caenorhabditis elegans, UniProt P34707); format: functional
# T1 sequence (P34707 whole entry): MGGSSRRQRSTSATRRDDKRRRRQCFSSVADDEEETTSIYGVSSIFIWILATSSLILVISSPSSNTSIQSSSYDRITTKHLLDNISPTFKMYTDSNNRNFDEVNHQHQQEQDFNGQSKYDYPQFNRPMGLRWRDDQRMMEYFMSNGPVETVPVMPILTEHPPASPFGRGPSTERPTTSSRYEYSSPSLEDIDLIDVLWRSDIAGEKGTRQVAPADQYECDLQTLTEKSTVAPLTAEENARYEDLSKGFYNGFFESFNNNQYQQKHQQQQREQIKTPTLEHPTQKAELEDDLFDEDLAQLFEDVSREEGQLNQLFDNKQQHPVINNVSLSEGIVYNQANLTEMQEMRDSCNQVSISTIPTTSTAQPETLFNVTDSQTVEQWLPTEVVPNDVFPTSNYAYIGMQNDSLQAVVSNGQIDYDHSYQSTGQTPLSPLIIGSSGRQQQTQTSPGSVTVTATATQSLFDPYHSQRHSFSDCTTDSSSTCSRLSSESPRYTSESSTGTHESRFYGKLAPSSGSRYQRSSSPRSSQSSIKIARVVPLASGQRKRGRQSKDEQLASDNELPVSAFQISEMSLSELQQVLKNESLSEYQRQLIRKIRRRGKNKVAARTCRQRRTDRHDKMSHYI
# [2] = biological target: Cytochrome P450 3A4 (Homo sapiens, UniProt P08684);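 further: CYP3A4 tested as one member of a cytochrome P450 panel screen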
# Chain of Cytochrome P450 3A4 (P08684 whole entry): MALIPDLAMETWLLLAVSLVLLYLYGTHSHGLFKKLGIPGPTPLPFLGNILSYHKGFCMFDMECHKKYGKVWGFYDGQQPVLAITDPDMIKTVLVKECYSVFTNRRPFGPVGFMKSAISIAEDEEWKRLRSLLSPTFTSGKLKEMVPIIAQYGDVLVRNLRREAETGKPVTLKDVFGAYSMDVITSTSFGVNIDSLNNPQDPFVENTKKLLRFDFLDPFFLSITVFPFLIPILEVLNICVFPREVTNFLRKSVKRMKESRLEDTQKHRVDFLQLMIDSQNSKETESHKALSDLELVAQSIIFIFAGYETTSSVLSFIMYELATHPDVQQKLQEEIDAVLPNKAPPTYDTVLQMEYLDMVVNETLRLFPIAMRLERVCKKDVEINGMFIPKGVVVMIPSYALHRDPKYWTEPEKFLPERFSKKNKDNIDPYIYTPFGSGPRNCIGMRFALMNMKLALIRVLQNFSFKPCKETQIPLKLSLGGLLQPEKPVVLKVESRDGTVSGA
# [3] = biological target: T2, Microphthalmia-associated transcription factor (Homo sapiens, UniProt O75030); test: TRPM1 promoter luciferase signal decrease, dose response, MITF inhibitor project, cell-based, SK-MEL-5, cherry-picked, set 3 (AID 493073); format: functional
# T2 sequence (O75030 whole entry): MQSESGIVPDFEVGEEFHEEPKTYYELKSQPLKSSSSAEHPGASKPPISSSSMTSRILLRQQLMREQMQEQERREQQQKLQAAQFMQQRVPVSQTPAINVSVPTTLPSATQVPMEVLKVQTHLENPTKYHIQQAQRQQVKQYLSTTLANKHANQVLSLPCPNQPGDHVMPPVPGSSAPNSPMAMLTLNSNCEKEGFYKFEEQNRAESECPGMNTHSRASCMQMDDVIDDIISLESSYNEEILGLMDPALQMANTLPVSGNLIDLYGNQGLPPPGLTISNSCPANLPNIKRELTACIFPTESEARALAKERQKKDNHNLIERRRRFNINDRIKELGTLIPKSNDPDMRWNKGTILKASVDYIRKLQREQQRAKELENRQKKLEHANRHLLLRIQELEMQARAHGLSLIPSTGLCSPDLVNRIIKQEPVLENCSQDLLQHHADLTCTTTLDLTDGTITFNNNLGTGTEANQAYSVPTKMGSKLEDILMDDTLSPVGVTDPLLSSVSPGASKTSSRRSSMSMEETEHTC
# [4] = biological target: T3, Corticotropin-releasing factor receptor 2/Corticotropin-releasing factor-binding protein (Homo sapiens, UniProt P24387+Q13324); test: Dose Response confirmation of uHTS hits for small molecule antagonists of the CRF-binding protein and CRF-R2 receptor complex.; format: functional; conditions: read-out: IC50_Mean
# T3 sequence (Q13324 whole entry): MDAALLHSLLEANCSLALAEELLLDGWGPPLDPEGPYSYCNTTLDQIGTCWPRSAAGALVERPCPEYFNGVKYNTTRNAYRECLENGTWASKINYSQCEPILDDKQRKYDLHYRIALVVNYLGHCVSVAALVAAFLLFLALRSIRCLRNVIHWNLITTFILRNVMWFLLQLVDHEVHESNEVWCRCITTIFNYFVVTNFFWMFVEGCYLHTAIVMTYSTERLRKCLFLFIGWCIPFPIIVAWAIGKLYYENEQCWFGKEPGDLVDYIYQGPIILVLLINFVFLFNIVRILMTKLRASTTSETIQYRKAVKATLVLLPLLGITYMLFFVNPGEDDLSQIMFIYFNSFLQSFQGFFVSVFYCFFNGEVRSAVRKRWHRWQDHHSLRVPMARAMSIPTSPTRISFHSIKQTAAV
# T3 sequence (P24387 whole entry): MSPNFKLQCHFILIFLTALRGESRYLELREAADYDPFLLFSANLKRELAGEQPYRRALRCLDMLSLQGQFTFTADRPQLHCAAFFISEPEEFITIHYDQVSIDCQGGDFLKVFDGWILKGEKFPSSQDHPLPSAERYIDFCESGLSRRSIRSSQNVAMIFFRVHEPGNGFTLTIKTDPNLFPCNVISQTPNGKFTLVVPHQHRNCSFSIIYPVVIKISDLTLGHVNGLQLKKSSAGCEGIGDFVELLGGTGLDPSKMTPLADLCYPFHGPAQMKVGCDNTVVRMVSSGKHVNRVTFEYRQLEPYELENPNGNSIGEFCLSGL
# [5] = biological target: T3, Corticotropin-releasing factor receptor 2/Corticotropin-releasing factor-binding protein; test: activators of CRF receptor 2 with binding protein – uHTS hits, confirmation (AID 602473); format: functional; conditions: read-out: EC50_Mean
# [6] = CRF-BP/CRF-R2 complex antagonists, dose response, cell-based, uHTS hits, 384-well (AID 651639); format: functional, Homo sapiens; conditions: read-out: IC50_Mean
# [7] = biological target: Glyceraldehyde-3-phosphate dehydrogenase (Homo sapiens, UniProt P04406)
# Chain of Glyceraldehyde-3-phosphate dehydrogenase (P04406 whole entry): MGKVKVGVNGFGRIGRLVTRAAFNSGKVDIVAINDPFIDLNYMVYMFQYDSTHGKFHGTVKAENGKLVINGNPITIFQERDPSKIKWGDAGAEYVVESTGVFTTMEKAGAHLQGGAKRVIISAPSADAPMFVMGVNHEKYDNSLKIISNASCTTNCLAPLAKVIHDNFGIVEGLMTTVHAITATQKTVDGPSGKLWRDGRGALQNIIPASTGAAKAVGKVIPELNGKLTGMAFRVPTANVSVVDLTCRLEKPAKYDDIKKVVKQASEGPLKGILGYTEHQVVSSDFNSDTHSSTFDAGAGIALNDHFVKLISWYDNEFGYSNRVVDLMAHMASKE
# [8] = biological target: T4, Alkaline phosphatase, tissue-nonspecific isozyme (Homo sapiens, UniProt P05186); test: human TNAP enzyme inhibitors, SAR follow-up, biochemical, luminescent, dose response (AID 1056)
# T4 sequence (P05186 whole entry): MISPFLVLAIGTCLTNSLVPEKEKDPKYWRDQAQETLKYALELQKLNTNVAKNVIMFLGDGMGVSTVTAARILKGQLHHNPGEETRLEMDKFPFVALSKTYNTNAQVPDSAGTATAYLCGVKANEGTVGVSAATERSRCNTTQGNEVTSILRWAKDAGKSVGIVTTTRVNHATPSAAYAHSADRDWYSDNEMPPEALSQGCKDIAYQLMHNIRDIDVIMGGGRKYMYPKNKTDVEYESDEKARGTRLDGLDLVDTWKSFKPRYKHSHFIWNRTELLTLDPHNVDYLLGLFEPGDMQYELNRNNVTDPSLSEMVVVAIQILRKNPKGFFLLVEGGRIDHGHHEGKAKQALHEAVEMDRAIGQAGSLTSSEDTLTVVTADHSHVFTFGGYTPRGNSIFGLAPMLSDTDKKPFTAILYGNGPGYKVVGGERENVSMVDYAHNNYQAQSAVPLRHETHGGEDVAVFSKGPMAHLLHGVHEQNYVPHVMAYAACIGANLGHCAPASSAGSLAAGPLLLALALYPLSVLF
# [9] = test system: Vero; test: Vero cell cytotoxicity, cytotoxicity control for flavivirus capping enzyme inhibitors (AID 588742); format: functional; conditions: Chlorocebus sabaeus
# [10] = biological target: Genome polyprotein (dengue virus type 2, UniProt P29990); test: Dengue-2 NS5 methyltransferase inhibitors, primary screen, biochemical, confirmation dose response (AID 588689); format: functional
# Chain of Genome polyprotein (P29990 2492-3391 limits assumed): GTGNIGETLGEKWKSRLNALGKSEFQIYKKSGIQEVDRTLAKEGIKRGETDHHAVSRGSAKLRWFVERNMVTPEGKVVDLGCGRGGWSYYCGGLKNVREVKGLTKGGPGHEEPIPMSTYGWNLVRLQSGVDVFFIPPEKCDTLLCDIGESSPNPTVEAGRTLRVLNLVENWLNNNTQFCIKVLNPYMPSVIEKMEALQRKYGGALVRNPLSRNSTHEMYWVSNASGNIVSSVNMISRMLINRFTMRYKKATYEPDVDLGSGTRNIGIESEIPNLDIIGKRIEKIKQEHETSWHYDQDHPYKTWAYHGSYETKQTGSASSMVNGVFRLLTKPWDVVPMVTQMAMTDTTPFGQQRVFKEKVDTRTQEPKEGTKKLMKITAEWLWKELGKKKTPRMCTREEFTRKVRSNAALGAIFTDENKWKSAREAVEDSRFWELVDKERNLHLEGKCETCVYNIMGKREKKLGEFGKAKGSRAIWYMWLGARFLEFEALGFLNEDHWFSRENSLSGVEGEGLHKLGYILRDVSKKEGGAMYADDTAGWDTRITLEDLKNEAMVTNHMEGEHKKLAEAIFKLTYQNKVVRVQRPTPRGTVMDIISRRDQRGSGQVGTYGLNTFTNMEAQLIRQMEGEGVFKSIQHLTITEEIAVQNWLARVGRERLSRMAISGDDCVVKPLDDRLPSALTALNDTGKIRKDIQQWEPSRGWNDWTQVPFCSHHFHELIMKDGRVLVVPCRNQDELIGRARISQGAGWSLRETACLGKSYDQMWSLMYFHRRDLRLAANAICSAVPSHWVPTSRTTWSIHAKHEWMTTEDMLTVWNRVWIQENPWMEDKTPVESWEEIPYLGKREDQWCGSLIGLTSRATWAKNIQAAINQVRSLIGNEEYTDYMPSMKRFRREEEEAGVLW
# [11] = test system: INS1; test: beta cell apoptosis inhibitors, cytokine rescue, dose response, luminescence, retest (AID 449756); format: functional, cell-based; conditions: Rattus norvegicus;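 further: cell death triggered by IL-1 beta plus TNF-alpha plus IFN-gamma mixture; protective hits raise ATP signal compared with cytokine alone wells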
# [12] = test system: Streptococcus sp. 'group A'; test: growth inhibition of control SK(-) GAS strain, dose response, counter-screen for streptokinase expression inhibitor project, luminescence, kanamycin, BacTiterGlo, confirmation (AID 1900); format: functional, organism-based
# [13] = biological target: Heat shock protein HSP 90-alpha (Homo sapiens, UniProt P07900); format: functional, organism-based
# [14] = test system: Streptococcus; test: Group A Streptococcus viability loss, dose response, counter-screen for streptokinase expression inhibitor project, luminescence, BacTiterGlo (AID 1915); format: functional, organism-based;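 further: potency for reduction of bacterial viability or growth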
# [15] = biological target: T5, Streptokinase A (Streptococcus pyogenes serotype M1, UniProt P10520); test: S. pyogenes streptokinase expression inhibitors, potency, dose response, plasminogen activation absorbance, OD405 (AID 1914); format: functional, Streptococcus pyogenes M1 GAS;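 further: secreted streptokinase activity via plasminogen activation per viability signal from cell pellet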
# T5 sequence (P10520 whole entry): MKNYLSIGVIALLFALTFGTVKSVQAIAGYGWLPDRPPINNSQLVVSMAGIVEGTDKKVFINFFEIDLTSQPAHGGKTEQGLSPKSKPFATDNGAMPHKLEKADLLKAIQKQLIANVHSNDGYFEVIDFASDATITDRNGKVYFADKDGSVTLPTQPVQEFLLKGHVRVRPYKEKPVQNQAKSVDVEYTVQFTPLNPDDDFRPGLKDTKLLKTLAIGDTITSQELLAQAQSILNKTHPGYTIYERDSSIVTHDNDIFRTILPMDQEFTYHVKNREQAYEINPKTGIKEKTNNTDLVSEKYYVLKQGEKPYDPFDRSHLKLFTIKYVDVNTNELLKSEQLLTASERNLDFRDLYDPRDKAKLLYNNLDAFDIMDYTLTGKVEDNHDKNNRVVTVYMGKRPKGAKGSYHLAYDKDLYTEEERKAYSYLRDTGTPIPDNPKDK
# [16] = biological target: Cytochrome P450 2C19 (Homo sapiens, UniProt P33261); test: Cytochrome panel assay with activity outcomes. Panel member name: p450-cyp2c19 Compounds with AC50 equal or less than 10 uM are considered active; format: functional; conditions: read-out: AC50
# Chain of Cytochrome P450 2C19 (P33261 whole entry): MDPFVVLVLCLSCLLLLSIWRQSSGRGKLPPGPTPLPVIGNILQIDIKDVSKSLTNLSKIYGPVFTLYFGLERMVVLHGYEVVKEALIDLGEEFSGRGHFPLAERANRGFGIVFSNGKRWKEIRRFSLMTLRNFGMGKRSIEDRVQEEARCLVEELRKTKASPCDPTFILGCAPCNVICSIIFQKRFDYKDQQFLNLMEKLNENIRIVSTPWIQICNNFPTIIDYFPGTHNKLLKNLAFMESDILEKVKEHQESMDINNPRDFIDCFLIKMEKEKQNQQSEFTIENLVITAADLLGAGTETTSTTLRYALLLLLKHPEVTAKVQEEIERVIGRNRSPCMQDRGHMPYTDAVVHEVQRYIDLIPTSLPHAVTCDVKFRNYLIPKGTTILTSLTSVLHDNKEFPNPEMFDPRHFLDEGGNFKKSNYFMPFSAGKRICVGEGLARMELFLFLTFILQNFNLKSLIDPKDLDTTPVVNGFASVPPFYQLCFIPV
# [17] = biological target: T6, Long-chain-fatty-acid--AMP ligase FadD28 (Mycobacterium tuberculosis, UniProt P9WQ59); test: Fluorescence polarization aasay to screen for inhibitors that compete for the binding of FadD28 to a bisubstrate Measured in Biochemical System Using Plate Reader - 2147-01_Inhibitor_Dose_CherryPick_Activity.; format: functional, Mycobacterium tuberculosis H37Rv
# T6 sequence (P9WQ59 whole entry): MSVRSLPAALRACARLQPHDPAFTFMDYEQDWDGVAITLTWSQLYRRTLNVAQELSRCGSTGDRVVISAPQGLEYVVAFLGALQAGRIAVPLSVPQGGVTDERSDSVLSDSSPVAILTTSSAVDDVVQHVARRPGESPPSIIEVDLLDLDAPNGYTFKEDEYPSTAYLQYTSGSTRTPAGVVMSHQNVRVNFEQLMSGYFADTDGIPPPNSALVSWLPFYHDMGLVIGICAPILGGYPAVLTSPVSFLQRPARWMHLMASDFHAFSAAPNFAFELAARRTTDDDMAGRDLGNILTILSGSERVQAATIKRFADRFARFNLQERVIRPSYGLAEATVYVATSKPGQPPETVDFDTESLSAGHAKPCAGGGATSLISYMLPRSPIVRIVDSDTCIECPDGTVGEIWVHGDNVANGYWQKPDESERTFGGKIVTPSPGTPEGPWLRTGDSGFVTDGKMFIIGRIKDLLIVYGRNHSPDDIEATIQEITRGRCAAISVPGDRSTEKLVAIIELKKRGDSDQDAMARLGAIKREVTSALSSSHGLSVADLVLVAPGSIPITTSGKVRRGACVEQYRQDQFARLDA
# [18] = HEK293 cell cytotoxicity, dose response, cytotoxicity control, plate reader, cherry-picked samples (AID 743446); format: functional, cell-based
# [19] = HepG2 cell cytotoxicity, dose response, cytotoxicity control, plate reader, cherry-pick, antagonist series (AID 743416); format: functional, cell-based
# [20] = MC4R antagonists, dose response, counter-screen for LGR2 antagonist project, cell-based, plate reader, cherry pick (AID 743444); format: functional;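 further: transfected HEK 293 cells stimulated with alpha-MSH peptide; potency of inhibitors of the alpha-MSH evoked signal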
# [21] = A549 cell cytotoxicity, dose response, cytotoxicity control, plate reader, cherry-pick, antagonist series (AID 743412); format: functional, cell-based
# [22] = LGR2 antagonists, dose response, cell-based, HEK293, CRE-luciferase reporter, cherry pick, set 2 (AID 743343); format: functional;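 further: transfected cells were stimulated with diluted bursicon conditioned medium after compound addition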
structure (smiles),measurement,setting,value
CN(CC(=O)NCCc1ccccc1)S(=O)(=O)c1ccc(Br)s1,IC50,[1],> 100 µM (inactive)
O=C(Oc1ccccc1)N1CCC2(CCN(Cc3nccs3)CC2)CC1,AC50,[2],inconclusive
COc1cccc(-c2csc3ncnc(Sc4nnnn4C)c23)c1,AC50,[3],25 µM (active)
C=CCOc1ccc(CNC(C)(C)CO)cc1OC.Cl,AC50,[2],inconclusive
Cc1ccc(-c2ccnc3nc(Sc4ncc(C(F)(F)F)cc4Cl)nn23)cc1,IC50,[1],> 100 µM (inactive)
Cc1nc2cc(C(=O)NCc3ccc4c(c3)OCO4)ccc2n1-c1ccc(Br)cc1,IC50,[4],< 0.368 µM (active)
same,EC50,[5],> 53 µM (inactive)
same,IC50,[6],> 20 µM (inactive)
O=C1c2c(Cl)c(Cl)c(Cl)c(Cl)c2C(=O)N1c1nnc[nH]1,IC50,[7],5.3 µM (active)
same,IC50,[8],> 100 µM (inactive)
CCOc1ccc(-n2c(=S)sc3c(O)nc(SCC(=O)C(C)(C)C)nc32)cc1,CC50,[9],> 40 µM (active)
same,IC50,[10],54.2 µM (active)
O=C(c1cccc(S(=O)(=O)N2CCOCC2)c1)N(Cc1ccc(F)cc1)Cc1ccco1,IC50,[4],10.6 µM (active)
same,EC50,[5],> 53 µM (inactive)
same,IC50,[6],> 20 µM (inactive)
O=C(/C=C/c1cccc([N+](=O)[O-])c1)c1ccc([N+](=O)[O-])o1,AC50,[11],2.18 µM (active)
same,CC50,[9],30.7 µM (active)
same,EC50,[12],2.33 µM (active)
same,AC50,[13],0.557 µM (active)
same,EC50,[14],8.2 µM (active)
same,EC50,[15],> 150 µM (not active)
COc1ccc(-c2c(C(F)(F)F)nn3c(O)cc(-c4ccccc4)nc23)cc1,IC50,[4],4.6 µM (active)
same,EC50,[12],8.01 µM (active)
same,EC50,[5],> 53 µM (inactive)
same,IC50,[6],15.7 µM (active)
same,EC50,[14],11.6 µM (active)
same,EC50,[15],> 150 µM (not active)
O=C(c1ccco1)N1CCC2(CC1)CN(c1ncccn1)C2,AC50,[16],25.1 µM (inconclusive)
same,AC50,[2],inconclusive
O=C(O)c1cnc2ccccc2n1,IC50,[1],> 100 µM (inactive)
CC(C)c1ccc(NC(=O)C(=O)C2C(=O)Nc3ccccc32)cc1 (stereo not drawn),AC50,[17],98.2 µM (active)
O=C1C(NS(=O)(=O)c2cccs2)=C(N2CCN(c3cccc(Cl)c3)CC2)C(=O)c2ccccc21,CC50,[9],> 40 µM (active)
COc1cccc(NC(=O)CN2CCc3ccccc3C2)c1,IC50,[1],> 100 µM (inactive)
Oc1ccc(Br)cc1/C=N/n1c(S)nnc1C1CCCCC1,AC50,[17],8.32 µM (active)
CC(=O)[C@H]1CC[C@H]2[C@@H]3C=CC4=CC(=O)CC[C@@]4(C)[C@H]3CC[C@]12C,AC50,[2],inconclusive
COC(=O)c1cc(-c2ccc([N+](=O)[O-])cc2)[nH]n1,IC50,[7],> 100 µM (not active)
same,IC50,[8],> 100 µM (inactive)
Cc1ccc(-c2cc3onc(-c4ccccc4)c3c(=O)n2C)cc1,AC50,[18],43.6 µM (active)
same,AC50,[19],27.6 µM (active)
same,AC50,[20],3.13 µM (active)
same,AC50,[3],9.76 µM (active)
same,AC50,[21],> 52 µM (inactive)
same,AC50,[22],1.67 µM (active)
